Structures can show the parent of a compound that is named as a salt.
Columns and labels:
[1] = biological target: Human Thrombin (Homo sapiens, UniProt P00734); experiment: Inhibition of the amidase activity of thrombin (Kass); assay type: biochemical; conditions: chromogenic substrate N-benzoyl-Phe-Val-Arg-p-nitroanilide; mean over range of concentrations
Description: The 150 μL of an aqueous solution of the chromogenic substrate (at 0.25 mg/mL) are added and the rates of hydrolysis of the substrate are measured by monitoring the reactions at 405 nm for the release of p-nitroaniline. Standard curves are constructed by plotting free thrombin concentration against hydrolysis rate. […] The amount of free inhibitor in each assay is calculated by subtracting the number of moles of bound thrombin from the number of moles of added inhibitor (test compound).
The Kass value is the hypothetical equilibrium constant for the reaction between thrombin and the test compound (I).
Kass is calculated for a range of concentrations of test compounds and the mean value is reported in units of liter per mole.

[2] = biological target: T1, factor Xa (Homo sapiens, UniProt P00742); experiment: Kass, factor Xa chromogenic substrate assay; assay type: biochemical; conditions: substrate N-Benzoyl-Ile-Glu-Gly-Arg-p-nitroanilide
T1 construct: Human factors X, Xa, IXa, XIa, and XIIa are purchased; purchased Enzyme Research Laboratories, South Bend, Ind
T1 sequence (P00742 235-488 limits assumed): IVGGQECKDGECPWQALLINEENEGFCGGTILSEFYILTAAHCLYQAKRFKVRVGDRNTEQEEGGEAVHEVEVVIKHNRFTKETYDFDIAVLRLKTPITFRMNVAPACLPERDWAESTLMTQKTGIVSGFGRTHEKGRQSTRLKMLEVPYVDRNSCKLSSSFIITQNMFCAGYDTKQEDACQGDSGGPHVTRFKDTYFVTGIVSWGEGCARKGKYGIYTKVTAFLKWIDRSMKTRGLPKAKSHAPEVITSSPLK
T1 sequence (P00742 41-179 partner limits assumed): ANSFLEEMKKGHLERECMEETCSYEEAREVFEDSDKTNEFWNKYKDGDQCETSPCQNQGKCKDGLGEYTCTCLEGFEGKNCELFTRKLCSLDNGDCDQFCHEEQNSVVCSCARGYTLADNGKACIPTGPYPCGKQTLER
Description: (§2) By substantially following the procedures described above for human thrombin, and using other human blood coagulation system serine proteases and proteases of the fibrinolytic system with the appropriate chromogenic substrates, identified below, selectivity of the compounds of the present invention with respect to the coagulation factor serine proteases and with respect to the fibrinolytic system serine proteases are evaluated as well as their substantial lack of interference with serine proteases of the fibrinolytic system.
(§3) Chromogenic substrates: N-Benzoyl-Ile-Glu-Gly-Arg-p-nitroanilide (for factor Xa); N-Cbz-D-Arg-Gly-Arg-p-nitroanilide (for factor IXa assay as the factor Xa substrate); Pyroglutamyl-Pro-Arg-p-nitroanilide (for Factor XIa and for aPC); H-D-Pro-Phe-Arg-p-nitroanilide (for factor XIIa); and Pyroglutamyl-Gly-Arg-p-nitroanilide (for urokinase); are purchased from KabiVirum, Stockholm, Sweden, or from Midwest Biotech, Fishers, Ind. Bovine trypsin is purchased from Worthington Biochemicals, Freehold, N.J., and human plasma kallikrein from Kabi Vitrum, Stockholm, Sweden. […] N-Benzoyl-Phe-Val-Arg-p-nitroanilide, the substrate for human thrombin and for trypsin, is synthesized according to procedures described above for the compounds of the present invention, using known methods of peptide coupling from commercially available reactants or purchased from Midwest Biotech, Fishers, Ind.

[3] = biological target: T2, Bovine trypsin (Bos taurus, UniProt P00760); experiment: Kass, trypsin chromogenic substrate assay; assay type: biochemical; conditions: substrate N-Benzoyl-Phe-Val-Arg-p-nitroanilide
T2 construct: Bovine trypsin is purchased from Worthington Biochemicals; purchased Worthington Biochemicals, Freehold, N.J
T2 sequence (P00760 24-246): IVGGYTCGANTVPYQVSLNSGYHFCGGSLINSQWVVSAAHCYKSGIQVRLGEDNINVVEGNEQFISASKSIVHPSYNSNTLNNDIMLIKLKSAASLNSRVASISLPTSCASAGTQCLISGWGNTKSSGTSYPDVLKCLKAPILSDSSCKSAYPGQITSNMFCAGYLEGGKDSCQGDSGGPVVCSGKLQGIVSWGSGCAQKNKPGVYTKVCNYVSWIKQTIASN
Description: as §2, §3

[4] = biological target: T3, Human plasmin (Homo sapiens, UniProt P00747); experiment: Kass, plasmin chromogenic substrate assay; assay type: biochemical; conditions: substrate H-D-Val-Leu-Lys-p-nitroanilide
T3 construct: Human plasmin is purchased from Boehringer Mannheim; purchased Boehringer Mannheim, Indianapolis, Ind
T3 sequence (P00747 581-810 limits assumed): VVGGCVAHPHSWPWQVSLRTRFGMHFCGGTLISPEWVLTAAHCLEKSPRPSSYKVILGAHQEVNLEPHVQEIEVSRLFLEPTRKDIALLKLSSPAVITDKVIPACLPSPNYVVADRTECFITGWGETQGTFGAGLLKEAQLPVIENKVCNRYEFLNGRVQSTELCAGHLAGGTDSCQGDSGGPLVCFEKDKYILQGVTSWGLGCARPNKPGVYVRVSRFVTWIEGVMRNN
T3 sequence (P00747 97-580 partner limits assumed): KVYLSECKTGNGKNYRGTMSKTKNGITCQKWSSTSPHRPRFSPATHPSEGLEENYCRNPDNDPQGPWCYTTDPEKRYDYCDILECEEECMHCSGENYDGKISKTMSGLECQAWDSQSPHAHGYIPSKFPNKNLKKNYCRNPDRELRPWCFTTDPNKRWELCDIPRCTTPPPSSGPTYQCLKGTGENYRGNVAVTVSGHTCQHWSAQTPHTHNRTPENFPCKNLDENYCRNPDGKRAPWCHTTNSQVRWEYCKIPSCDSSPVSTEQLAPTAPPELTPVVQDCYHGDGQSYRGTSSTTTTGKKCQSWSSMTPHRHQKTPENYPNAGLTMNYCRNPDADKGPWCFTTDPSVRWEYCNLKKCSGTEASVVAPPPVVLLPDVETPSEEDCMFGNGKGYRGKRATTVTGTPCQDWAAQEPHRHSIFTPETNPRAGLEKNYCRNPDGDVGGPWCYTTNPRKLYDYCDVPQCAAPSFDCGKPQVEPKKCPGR
Description: as §2
(§4) Human plasmin is purchased from Boehringer Mannheim, Indianapolis, Ind.; nt-PA is purchased as single chain activity reference from American Diagnostica, Greenwich, Conn.; modified-t-PA6 (mt-PA6) is prepared at Eli Lilly and Company by procedure known in the art (See, Burck, et al., J. Biol. Chem., 265, 5120-5177 (1990). Plasmin chromogenic substrate H-D-Val-Leu-Lys-p-nitroanilide and tissue plasminogen activator (t-PA) substrate H-D-Ile-Pro-Arg-p-nitroanilide are purchased from Kabi Vitrum, Stockholm, Sweden.

[5] = biological target: T4, t-PA (Homo sapiens, UniProt P00750); experiment: Kass, t-PA chromogenic substrate assay; assay type: biochemical; conditions: substrate H-D-Ile-Pro-Arg-p-nitroanilide
T4 construct: purchased American Diagnostica, Greenwich, Conn
T4 sequence (P00750 36-562): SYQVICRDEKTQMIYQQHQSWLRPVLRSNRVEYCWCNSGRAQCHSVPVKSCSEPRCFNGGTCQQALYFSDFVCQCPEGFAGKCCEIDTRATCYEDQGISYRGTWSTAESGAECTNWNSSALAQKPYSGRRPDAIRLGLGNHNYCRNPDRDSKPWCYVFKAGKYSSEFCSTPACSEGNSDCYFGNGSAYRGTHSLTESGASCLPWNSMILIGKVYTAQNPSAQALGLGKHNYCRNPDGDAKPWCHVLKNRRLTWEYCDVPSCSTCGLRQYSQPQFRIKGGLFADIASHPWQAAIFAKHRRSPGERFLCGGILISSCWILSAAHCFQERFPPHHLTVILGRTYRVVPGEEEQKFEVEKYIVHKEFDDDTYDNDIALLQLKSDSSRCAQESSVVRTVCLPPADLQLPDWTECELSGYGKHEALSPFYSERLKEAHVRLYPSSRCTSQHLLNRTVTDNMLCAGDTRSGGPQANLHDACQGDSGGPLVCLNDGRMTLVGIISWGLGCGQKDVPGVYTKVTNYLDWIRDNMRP
Description: as §2, §4

[6] = system: Human Plasma; experiment: Human plasma anticoagulation, thrombin time (TT); assay type: biochemical; conditions: concentration required to double the clotting time
Outline: (§1)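 Compound was spiked over a wide concentration range into citrated human plasma, and clotting times were read on a coagulation instrument. PT was started with saline plus Thromboplastin-C. APTT used 120 s preincubation with Actin, then 0.02M CaCl2. TT used saline plus bovine thrombin (10 NIH units/mL). Doubling concentrations were obtained by linear extrapolation.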

[7] = system: Human Plasma; experiment: Human plasma anticoagulation, activated partial thromboplastin time (APTT); assay type: biochemical; conditions: concentration required to double the clotting time
Outline: as §1

[8] = system: Human Plasma; experiment: Human plasma anticoagulation, prothrombin time (PT); assay type: biochemical; conditions: concentration required to double the clotting time
Outline: as §1

[9] = Index of bioavailability (% relative activity from plasma TT, oral vs i.v.); assay type: in vivo, rat; conditions: AUC of plasma TT time course, p.o. vs i.v. bolus, dose adjusted
Description: Parke Davis) at 37° C. […] Assays are done in duplicate and averaged. […] Each sample population represented alternating sequential time points.

[10] = Simoons et al., Circulation, 90, I-231 (1994); cited from earlier work
[11] = Arterio-Venous shunt model; assay type: in vivo, rat; conditions: during infusion reducing thrombus weight to approximately 20% of control
Description: The left jugular vein and right carotid artery are cannulated with 20 cm lengths of polyethylene PE 60 tubing. A 6 cm center section of larger tubing (PE 190) with a cotton thread (5 cm) in the lumen, is friction fitted between the longer sections to complete the arterio-venous shunt circuit. Blood circulated through the shunt for 15 minutes before the thread is carefully removed and weighed. The weight of a wet thread is subtracted from the total weight of the thread and thrombus (see J. R. Smith, Br. J. Pharmacol., 77,29 (1982)).
Assays are done in duplicate and averaged.

| SMILES | Kass × 10^6 (L/mole) Human Thrombin [1] | Kass × 10^6 (L/mole) Xa [2] | Kass × 10^6 (L/mole) Trypsin [3] | Kass × 10^6 (L/mole) Plasmin [4] | Kass × 10^6 (L/mole) t-PA [5] | Human Plasma Anticoagulation 2x Clotting time TT [6] [ng/mL] | Human Plasma Anticoagulation 2x Clotting time APTT [7] | Human Plasma Anticoagulation 2x Clotting time PT [8] | % oral/i.v. activity (Rat) [9] [%] | anticoagulant in man [10] | PTT extended [11] |
| --- | --- | --- | --- | --- | --- | --- | --- | --- | --- | --- | --- |
| Cl.Cl.Cl.N=C(N)c1ccc(CNC(=O)[C@@H]2C[C@@H]3CCCC[C@@H]3N2C(=O)[C@H]2CCCCN2)cc1 (relative stereo) [Example 20, D-hPro-Ohi-p-NHCH2 C6 H4 C(NH)NH2.3HCl] | 10 × 10^6 L/mole | 0.10 × 10^6 L/mole | 19 × 10^6 L/mole | 0.10 × 10^6 L/mole | 0.0077 × 10^6 L/mole | 62 | 550 ng/mL | 600 ng/mL | 23 | – | – |
| CN[C@H](Cc1ccccc1)C(=O)N1CCC[C@H]1C(=O)N[C@H](C=O)CCCNC(=N)N.O=S(=O)(O)O [D-MePhe-Pro-Arg-H sulfate] | – | – | – | – | – | – | – | – | – | is an anticoagulant in man | – |
| Cl.N=C(N)c1ccc(CNC(=O)[C@@H]2CCCN2C(=O)[C@@H](CC2CCCCC2)NCC(=O)O)cc1 [Example 48, HOOCCH2 -D-Cha-Pro-p-NHCH2 C6 H4 C(NH)NH2.HCl] | – | – | – | – | – | 2. | – | – | – | – | about 120 % of control |
| CCS(=O)(=O)N[C@H](Cc1ccccc1)C(=O)N1CCC[C@H]1C(=O)NCCCCN=C(N)N.Cl [Example 1, EtSO2 -D-Phe-Pro-Agm.HCl] | – | – | – | – | – | – | – | – | 8 | – | – |
| Cl.N=C(N)c1ccc(CNC(=O)[C@@H]2CCCN2C(=O)[C@@H](CC2CCCCC2)NCCC(=O)O)cc1 [Example 52, HOOCCH2 CH2 -D-Cha-Pro-p-NHCH2 C6 H4 C(NH)NH2.HCl] | 700 × 10^6 L/mole | 0.46 × 10^6 L/mole | 47. × 10^6 L/mole | 0.11 × 10^6 L/mole | 0.01 × 10^6 L/mole | 6 | 80 ng/mL | 170 ng/mL | – | – | – |
| Cl.O=C(O)CN[C@H](CC1CCCCC1)C(=O)N1CCC[C@H]1C(=O)NCCC1=CCNCC1 [Example 59, HO2 CCH2 -D-Cha-Pro-4-NHCH2 CH2 -3,4-dehydro-piperidine.HCl] | 1.10 × 10^6 L/mole | < 0.001 × 10^6 L/mole | 0.21 × 10^6 L/mole | < 0.001 × 10^6 L/mole | < 0.001 × 10^6 L/mole | 420 | 5,500 ng/mL | 7,000 ng/mL | – | – | – |
| CCS(=O)(=O)N[C@H](Cc1ccccc1)C(=O)N1[C@H](C(=O)NCc2ccc(C(=N)N)cc2)C[C@@H]2CCCC[C@@H]21 (relative stereo) [Example 45, EtSO2 -Phe-cis-Ohi-p-NHCH2 C6 H4 C(NH)NH2.HCl] | 610 × 10^6 L/mole | 1.5 × 10^6 L/mole | 110. × 10^6 L/mole | 1.1 × 10^6 L/mole | 0.77 × 10^6 L/mole | 8 | 200 ng/mL | 330 ng/mL | – | – | – |

Source: patent US5705487A, “Antithrombotic agents” (priority 1995, dated 1998)
